Data reported in patent US20120065187A1 (ALCON RESEARCH, LTD, priority 2008, published 2012).
Counter-ions that a name gives are not always drawn.

Target: T1, human H4 (Homo sapiens, UniProt Q9H3N8)
T1 construct: host or cells: CHO-K1
Assay: In vitro histamine receptor cell-based assay (aequorin bioluminescence), H4 antagonism
Conditions: CHO-K1 cells expressing human H4, aequorin and Gα16; histamine at EC80; read-out: H4 Antagonist EC50
Protocol: The cell-based assays utilize an aequorin dependent bioluminescence signal. Doubly-transfected, stable CHO-K1 cell lines expressing human H1 or H4, mitochondrion-targeted aequorin, and (H4 only) human G protein Gα16 are obtained from Perkin-Elmer. Cells are maintained in F12 (Ham's) growth medium, containing 10% (vol./vol.) fetal bovine serum, penicillin (100 IU/mL), streptomycin (0.1 mg/mL), zeocin (0.25 mg/mL) and geneticin (0.40 mg/mL). Cell media components are from Invitrogen, Inc. One day prior to assay, the growth medium is replaced with the same, excluding zeocin and geneticin.
For assay preparation, growth medium is aspirated, and cells are rinsed with calcium-free, magnesium-free phosphate-buffered saline, followed by two to three minute incubation in Versene (Invitrogen, Inc.) at 37° C. Assay medium (DMEM:F12 [50:50], phenol-red free, containing 1 mg/mL protease-free bovine serum albumin) is added to collect the released cells, which are then centrifuged. The cell pellet is re-suspended in assay medium, centrifuged once more, and re-suspended in assay medium to a final density of 5×10^6 cells/mL. Coelenterazine-h dye (500 μM in ethanol) is added to a final concentration of 5 μM, and mixed immediately. The conical tube containing the cells is then wrapped with foil to protect the light-sensitive dye. The cells are incubated for four hours further at room temperature (approximately 21° C.) with end-over-end rotation to keep them in suspension.
Just before assay, the dye-loaded cells are diluted to 0.75×10^6 cells/mL (H1 receptor) or 1.5×10^6 cells/mL (H4 receptor) with additional assay medium. Cells are dispensed to 1536 well micro-titer plates at 3 μL/well. To assay receptor antagonism, 60 nl of 100× concentration test compounds in 100% dimethyl sulfoxide (DMSO) are dispensed to the wells, one compound per well, by passive pin transfer, and the plates are incubated for 15 minutes at room temperature. […] The pipette dispenses 3 μL/well of agonist (histamine, at twice the final concentration, where final concentration is a previously determined EC80) in assay medium, with concurrent bioluminescence detection. Agonist activity of test compounds is excluded by separate assays that measure response to test compounds immediately, without added histamine agonist.
CCD image capture on the Lumilux includes a 5 second baseline read prior to agonist addition, and generally a 40 second read per plate after agonist addition. A decrease in bioluminescence signal (measured either as area-under-the-curve, or maximum signal amplitude minus minimum signal amplitude) correlates with receptor antagonism in a dose dependent manner. The negative control is DMSO lacking any test compound. For antagonist assays, the positive controls are diphenhydramine (2-Diphenylmethoxy-N,N-dimethylethylamine, 10 μM final concentration, H1 receptor) or JNJ7777120 (1-[(5-Chloro-1H-indol-2-yl)carbonyl]-4-methyl-piperazine, 10 μM final concentration, H4 receptor). Efficacy is measured as a percentage of positive control activity.

T1 sequence (Q9H3N8 whole entry): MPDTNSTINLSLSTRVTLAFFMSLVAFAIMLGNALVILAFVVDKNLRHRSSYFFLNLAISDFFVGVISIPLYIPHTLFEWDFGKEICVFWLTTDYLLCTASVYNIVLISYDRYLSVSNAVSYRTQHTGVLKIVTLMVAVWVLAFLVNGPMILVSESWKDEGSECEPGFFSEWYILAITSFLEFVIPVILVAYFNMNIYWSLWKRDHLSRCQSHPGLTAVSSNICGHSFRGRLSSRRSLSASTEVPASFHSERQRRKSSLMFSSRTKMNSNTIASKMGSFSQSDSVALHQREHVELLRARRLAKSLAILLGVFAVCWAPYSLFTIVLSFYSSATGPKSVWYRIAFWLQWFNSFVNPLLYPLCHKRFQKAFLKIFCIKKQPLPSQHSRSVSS

Row | SMILES | EC50 [µM]
1 | Brc1ccc2c(c1)nc(N1CCNCC1)c1nocc12 [Example 229, 7-bromo-4-(piperazin-1-yl)isoxazolo[3,4-c]quinoline] | > 10
2 | Clc1ccc2nc(N3CCN4CCCC4C3)c3nocc3c2c1 (stereo not shown) [Example 230, 8-chloro-4-(hexahydropyrrolo[1,2-a]pyrazin-2(1H)-yl)isoxazolo[3,4-c]quinoline] | < 10
3 | Cn1cc2c(n1)c(N1CCNCC1)nc1ccc(Br)cc12 [Example 235, 8-bromo-2-methyl-4-(piperazin-1-yl)-2H-pyrazolo[3,4-c]quinoline] | < 10
4 | Cc1nc2c(N3CCNCC3)nc3ccc(Br)cc3n2n1 [Example 242, 8-bromo-2-methyl-4-(piperazin-1-yl)-[1,2,4]triazolo[1,5-a]quinoxaline] | < 10
5 | Cc1nc2c3cc(Cl)cc(F)c3nc(N3CCNCC3)n2n1 [Example 247, 9-chloro-7-fluoro-2-methyl-5-(piperazin-1-yl)-[1,2,4]triazolo[1,5-c]quinazoline] | < 10
6 | CN1CCN(c2nc3ccc(Br)cc3n3nnnc23)CC1 [Example 204, 8-bromo-4-(4-methylpiperazin-1-yl)tetrazolo[1,5-a]quinoxaline] | < 10
7 | Fc1cc2nc(N3CCNCC3)c3nocc3c2cc1F [Example 227, 7,8-difluoro-4-(piperazin-1-yl)isoxazolo[3,4-c]quinoline] | < 10
8 | Cc1nc2c(N3CCN(C)CC3)nc3cc(F)c(Br)cc3n2n1 [Example 237, 8-bromo-7-fluoro-2-methyl-4-(4-methylpiperazin-1-yl)-[1,2,4]triazolo[1,5-a]quinoxaline] | < 10
9 | Cc1nc2c(N3CCN(C)CC3)nc3ccc(Br)cc3n2n1 [Example 241, 8-bromo-2-methyl-4-(4-methylpiperazin-1-yl)-[1,2,4]triazolo[1,5-a]quinoxaline] | < 10
10 | Fc1cc(C(F)(F)F)cc2c1nc(N1CCNCC1)c1nnnn12 [Example 206, 6-fluoro-4-(piperazin-1-yl)-8-(trifluoromethyl)tetrazolo[1,5-a]quinoxaline hydrochloride] | < 10
11 | Cc1nc2c(N3CCNCC3)nc3cc(F)c(Br)cc3n2n1 [Example 238, 8-bromo-7-fluoro-2-methyl-4-(piperazin-1-yl)-[1,2,4]triazolo[1,5-a]quinoxaline] | < 10
12 | CN1CCN(c2nc3cc(Cl)ccc3c3conc23)CC1 [Example 224, 7-chloro-4-(4-methylpiperazin-1-yl)isoxazolo[3,4-c]quinoline] | < 10
13 | CCOC(=O)c1nc2c(N3CCN(C)CC3)nc3ccc(Cl)cc3n2n1 [Example 244, Ethyl 8-chloro-4-(4-methylpiperazin-1-yl)-[1,2,4]triazolo[1,5-a]quinoxaline-2-carboxylate] | > 10
14 | Fc1cc2c(cc1Cl)nc(N1CCNCC1)c1nnnn12 [Example 202, 7-chloro-8-fluoro-4-(piperazin-1-yl)tetrazolo[1,5-a]quinoxaline] | < 10
15 | CN1CCN(c2nc3ccc(Br)cc3c3c[nH]nc23)CC1 [Example 232, 8-bromo-4-(4-methylpiperazin-1-yl)-2H-pyrazolo[3,4-c]quinoline] | < 10
16 | Cc1nc2c3cc(Br)cc(F)c3nc(N3CCN(C)CC3)n2n1 [Example 248, 9-bromo-7-fluoro-2-methyl-5-(4-methylpiperazin-1-yl)-[1,2,4]triazolo[1,5-c]quinazoline] | < 10
17 | CN1CCN(c2nc3ccc(Br)cc3c3cn(C)nc23)CC1 [Example 234, 8-bromo-2-methyl-4-(4-methylpiperazin-1-yl)-2H-pyrazolo[3,4-c]quinoline] | < 10
18 | Clc1ccc2nc(N3CCN4CCCC4C3)c3nnnn3c2c1 (stereo not shown) [Example 213, 8-chloro-4-(hexahydropyrrolo[1,2-a]pyrazin-2(1H)-yl)tetrazolo[1,5-a]quinoxaline] | < 10
19 | CN1CCN(c2nc3ccc(C(F)(F)F)c(F)c3n3nnnc23)CC1 [Example 171, 9-Fluoro-4-(4-methylpiperazin-1-yl)-8-(trifluoromethyl)tetrazolo[1,5-a]quinoxaline] | < 10

Row | SMILES | EC50 [µM]
20 | FC(F)(F)c1ccc2c(c1)nc(N1CCNCC1)c1nocc12 [Example 221, 4-(piperazin-1-yl)-7-(trifluoromethyl)isoxazolo[3,4-c]quinoline] | > 10
21 | CN1CCN(c2nc3c(F)cc(C(F)(F)F)cc3n3nnnc23)CC1 [Example 207, 6-fluoro-4-(4-methylpiperazin-1-yl)-8-(trifluoromethyl)tetrazolo[1,5-a]quinoxaline hydrochloride] | < 10
22 | CN1CCN(c2nc3c(F)cc(Br)cc3n3cnnc23)CC1 [Example 208, 8-bromo-6-fluoro-4-(4-methylpiperazin-1-yl)-[1,2,4]triazolo[4,3-a]quinoxaline] | < 10
23 | CN1CCN(c2nc3cc(Br)ccc3c3conc23)CC1 [Example 228, 7-bromo-4-(4-methylpiperazin-1-yl)isoxazolo[3,4-c]quinoline] | < 10
24 | Brc1ccc2nc(N3CCNCC3)c3nnnn3c2c1 [Example 205, 8-bromo-4-(piperazin-1-yOtetrazolo[1,5-a]quinoxaline] | < 10
25 | Cc1nc2c(N3CCN(C)CC3)nc3cc(F)c(C)cc3n2n1 [Example 239, 7-fluoro-2,8-dimethyl-4-(4-methylpiperazin-1-yl)-[1,2,4]triazolo[1,5-a]quinoxaline] | < 10
26 | CN1CCN(c2nc3cc(F)c(Br)cc3n3nnnc23)CC1 [Example 212, 8-bromo-7-fluoro-4-(4-methylpiperazin-1-yl)tetrazolo[1,5-a]quinoxaline] | < 10
27 | CN1CCN(c2nc3cc(Cl)c(F)cc3n3nnnc23)CC1 [Example 203, 7-chloro-8-fluoro-4-(4-methylpiperazin-1-yl)tetrazolo[1,5-a]quinoxaline] | < 10
28 | Fc1cc(Br)cc2c1nc(N1CCNCC1)c1nncn12 [Example 209, 8-bromo-6-fluoro-4-(piperazin-1-yl)-[1,2,4]triazolo[4,3-a]quinoxaline] | < 10
29 | CN1CCN(c2nc3c(F)cc(Br)cc3n3nnnc23)CC1 [Example 210, 8-bromo-6-fluoro-4-(4-methylpiperazin-1-yl)tetrazolo[1,5-a]quinoxaline] | < 10
30 | Brc1ccc2nc(N3CCNCC3)c3n[nH]cc3c2c1 [Example 233, 8-bromo-4-(piperazin-1-yl)-2H-pyrazolo[3,4-c]quinoline] | < 10
31 | Clc1ccc2c(c1)nc(N1CCNCC1)c1nocc12 [Example 225, 7-chloro-4-(piperazin-1-yl)isoxazolo[3,4-c]quinoline] | < 10
32 | Cc1nc2c3cc(Cl)cc(F)c3nc(N3CCN(C)CC3)n2n1 [Example 246, 9-chloro-7-fluoro-2-methyl-5-(4-methylpiperazin-1-yl)-[1,2,4]triazolo[1,5-c]quinazoline] | < 10
33 | Cc1nc2c(N3CCNCC3)nc3cc(F)c(C)cc3n2n1 [Example 240, 7-fluoro-2,8-dimethyl-4-(piperazin-1-yl)-[1,2,4]triazolo[1,5-a]quinoxaline] | < 10
34 | CN1CCN(c2nc3cc(F)c(F)cc3c3conc23)CC1 [Example 226, 7,8-difluoro-4-(4-methylpiperazin-1-yl)isoxazolo[3,4-c]quinoline] | < 10
35 | CN1CCN(c2nc3ccc(Cl)cc3n3ncnc23)CC1 [Example 243, 8-chloro-4-(4-methylpiperazin-1-yl)-[1,2,4]triazolo[1,5-a]quinoxaline] | < 10
36 | FC(F)(F)c1ccc2nc(N3CCNCC3)c3[nH]ncc3c2c1 [Example 231, 4-(piperazin-1-yl)-8-(trifluoromethyl)-3H-pyrazolo[3,4-c]quinoline] | < 10
37 | Fc1cc2nc(N3CCNCC3)c3nnnn3c2cc1Br [Example 211, 8-bromo-7-fluoro-4-(piperazin-1-yl)tetrazolo[1,5-a]quinoxaline] | < 10
